Experimental data from ChEMBL document CHEMBL1201862, “PubChem BioAssay data set” (2004).
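Five concentrations, 48 hours, 96-well plates. The concentration for 50% growth inhibition is given as GI50.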 Calls of active or inactive are those of the source. No stated cut-off is given here; in the data, active = GI50 up to about 1.1 µM and inactive = higher.

Assays:
Test in all cases: DTP human tumour cell line panel, 48 h
ACHN = system: ACHN
NCI-H522 = system: NCI-H522
TK-10 = system: TK-10
OVCAR-3 = system: OVCAR-3
DMS-114 = system: DMS-114
DLD-1 = system: DLD-1
CAKI-1 = system: CAKI-1
M14 = system: M14
CCRF-CEM = system: CCRF-CEM
SF-539 = system: SF-539
UO-31 = system: UO-31
NCI-H226 = system: NCI-H226
786-0 = system: 786-0
HL-60 = system: HL-60
K562 = system: K562
NCI-H23 = system: NCI-H23
A549 = system: A549
SK-MEL-5 = system: SK-MEL-5
HOP-92 = system: HOP-92
HCC 2998 = system: HCC 2998
KM-20L2 = system: KM-20L2
RPMI-8226 = system: RPMI-8226
LXFL 529 = system: LXFL 529
Malme-3M = system: Malme-3M
HCT-15 = system: HCT-15
OVCAR-8 = system: OVCAR-8
OVCAR-5 = system: OVCAR-5
SR = system: SR
U-251 = system: U-251
UACC-62 = system: UACC-62
IGROV-1 = system: IGROV-1
NCI-H460 = system: NCI-H460
M19-MEL = system: M19-MEL
SF-295 = system: SF-295
MOLT-4 = system: MOLT-4
SNB-75 = system: SNB-75
KM12 = system: KM12
UACC-257 = system: UACC-257
SW-620 = system: SW-620
OVCAR-4 = system: OVCAR-4
COLO 205 = system: COLO 205
DMS-273 = system: DMS-273
SK-MEL-28 = system: SK-MEL-28
XF498 = system: XF498
SNB-19 = system: SNB-19
HT-29 = system: HT-29
SF-268 = system: SF-268
HCT-116 = system: HCT-116
HOP-62 = system: HOP-62
SK-MEL-2 = system: SK-MEL-2
SK-OV-3 = system: SK-OV-3
SNB-78 = system: SNB-78
A498 = system: A498
HOP-18 = system: HOP-18
SN12C = system: SN12C

C=CCOC1CC(n2cnc3c(N)ncnc32)OC1CO (configuration not stated)
GI50 (ACHN): > 100 µM (inactive) | GI50 (NCI-H522): > 100 µM (inactive) | GI50 (TK-10): > 100 µM (inactive) | GI50 (OVCAR-3): > 100 µM (inactive) | GI50 (DMS-114): > 100 µM (inactive) | GI50 (DLD-1): > 100 µM (inactive) | GI50 (CAKI-1): > 100 µM (inactive) | GI50 (M14): > 100 µM (inactive) | GI50 (CCRF-CEM): > 100 µM (inactive) | GI50 (SF-539): > 100 µM (inactive) | GI50 (UO-31): > 100 µM (inactive) | GI50 (NCI-H226): > 100 µM (inactive) | GI50 (786-0): > 100 µM (inactive) | GI50 (HL-60): > 100 µM (inactive) | GI50 (K562): > 100 µM (inactive) | GI50 (NCI-H23): > 100 µM (inactive) | GI50 (A549): > 100 µM (inactive) | GI50 (SK-MEL-5): > 100 µM (inactive) | GI50 (HOP-92): > 100 µM (inactive) | GI50 (HCC 2998): > 100 µM (inactive) | GI50 (KM-20L2): > 100 µM (inactive) | GI50 (RPMI-8226): > 100 µM (inactive) | GI50 (LXFL 529): > 100 µM (inactive) | GI50 (Malme-3M): > 100 µM (inactive) | GI50 (HCT-15): > 100 µM | GI50 (OVCAR-8): > 100 µM (inactive) | GI50 (OVCAR-5): > 100 µM (inactive) | GI50 (SR): > 100 µM (inactive) | GI50 (U-251): > 100 µM (inactive) | GI50 (UACC-62): > 100 µM (inactive) | GI50 (IGROV-1): > 100 µM (inactive) | GI50 (NCI-H460): > 100 µM (inactive) | GI50 (M19-MEL): > 100 µM (inactive) | GI50 (SF-295): > 100 µM (inactive) | GI50 (MOLT-4): > 100 µM (inactive) | GI50 (SNB-75): 51.1 µM (inactive) | GI50 (KM12): > 100 µM (inactive) | GI50 (UACC-257): > 100 µM (inactive) | GI50 (SW-620): > 100 µM (inactive) | GI50 (OVCAR-4): > 100 µM (inactive) | GI50 (COLO 205): > 100 µM (inactive) | GI50 (DMS-273): > 100 µM (inactive) | GI50 (SK-MEL-28): > 100 µM (inactive) | GI50 (XF498): > 100 µM (inactive) | GI50 (SNB-19): > 100 µM (inactive) | GI50 (HT-29): > 100 µM (inactive) | GI50 (SF-268): > 100 µM (inactive) | GI50 (HCT-116): > 100 µM (inactive) | GI50 (HOP-62): > 100 µM (inactive) | GI50 (SK-MEL-2): > 100 µM (inactive)

O=C1CNNC(Cn2nc(-c3ccccc3)c3ccccc3c2=O)=N1
GI50 (ACHN): > 100 µM (inactive) | GI50 (NCI-H522): > 100 µM (inactive) | GI50 (TK-10): > 100 µM (inactive) | GI50 (OVCAR-3): > 100 µM (inactive) | GI50 (DMS-114): > 100 µM (inactive) | GI50 (DLD-1): > 100 µM (inactive) | GI50 (M14): > 100 µM (inactive) | GI50 (CCRF-CEM): > 100 µM (inactive) | GI50 (SF-539): > 100 µM (inactive) | GI50 (UO-31): > 100 µM (inactive) | GI50 (NCI-H226): > 100 µM (inactive) | GI50 (SK-OV-3): > 100 µM (inactive) | GI50 (786-0): > 100 µM (inactive) | GI50 (HL-60): > 100 µM (inactive) | GI50 (SNB-78): > 100 µM (inactive) | GI50 (K562): > 100 µM (inactive) | GI50 (NCI-H23): > 100 µM (inactive) | GI50 (A549): > 100 µM (inactive) | GI50 (SK-MEL-5): > 100 µM (inactive) | GI50 (HOP-92): > 100 µM (inactive) | GI50 (HCC 2998): > 100 µM (inactive) | GI50 (RPMI-8226): > 100 µM (inactive) | GI50 (LXFL 529): > 100 µM (inactive) | GI50 (Malme-3M): > 100 µM (inactive) | GI50 (HCT-15): > 100 µM | GI50 (A498): > 100 µM (inactive) | GI50 (OVCAR-8): > 100 µM (inactive) | GI50 (HOP-18): > 100 µM (inactive) | GI50 (OVCAR-5): > 100 µM (inactive) | GI50 (SN12C): > 100 µM (inactive) | GI50 (SR): > 100 µM (inactive) | GI50 (U-251): > 100 µM (inactive) | GI50 (UACC-62): > 100 µM (inactive) | GI50 (IGROV-1): > 100 µM (inactive) | GI50 (NCI-H460): > 100 µM (inactive) | GI50 (M19-MEL): > 100 µM (inactive) | GI50 (SF-295): > 100 µM (inactive) | GI50 (MOLT-4): > 100 µM (inactive) | GI50 (SNB-75): 83 µM (inactive) | GI50 (KM12): > 100 µM (inactive) | GI50 (UACC-257): > 100 µM (inactive) | GI50 (SW-620): > 100 µM (inactive) | GI50 (OVCAR-4): > 100 µM (inactive) | GI50 (COLO 205): > 100 µM (inactive) | GI50 (DMS-273): > 100 µM (inactive) | GI50 (SK-MEL-28): > 100 µM (inactive) | GI50 (SNB-19): > 100 µM (inactive) | GI50 (HT-29): > 100 µM (inactive) | GI50 (SF-268): > 100 µM (inactive) | GI50 (HCT-116): > 100 µM (inactive) | GI50 (HOP-62): > 100 µM (inactive) | GI50 (SK-MEL-2): > 100 µM (inactive)
